Results reported in patent US10294228B2, “Breathing control modulating compounds, and methods of making and using same” (NEURAD LTD., priority 2015, dated 2019).
Counter-ions that a name gives are not always drawn.

System: anesthetized rats
Test: Anesthetized rat spirometry screening assay (ventilatory activity, minute volume)
Assay type: in vivo
Conditions: increase in minute volume (VE); for change in vivo at 0.3 mg/kg: 0.3 mg/kg IV bolus, read-out: VE % Inc @ 0.3 mg/kg IV; for change in vivo at 3 mg/kg: 3.0 mg/kg IV bolus, read-out: VE % Inc @ 3.0 mg/kg IV
Procedure: Anesthetized rats provide a quick method of screening compounds for respiratory and cardiovascular activity.
Rats were initially anesthetized with 3% isoflurane (inhaled) and femoral artery and vein cannulas were surgically inserted. Once cannulated, the rats were transitioned to urethane anesthesia (1.5 g/kg; i.v.) and a tracheal cut-down was performed. After placing the tracheal cannula, it was connected to a pneumotachometer to record respiratory airflow from which respiratory rate (RR), tidal volume (VT), and their product minute volume (MV, also termed VE) were derived. After the surgical preparation was complete, animals were allowed to stabilize for 30 minutes while respiratory rate, tidal volume, minute volume, blood pressure and heart rate were recorded continuously. Arterial blood gases (ABG) were obtained from arterial blood collected from the femoral artery. ABG measurements were taken before and 6 minutes after vehicle and each dose of compound administered. Compounds being screened were administered via bolus injections through the venous cannula followed by a saline flush (total time of administration is approximately 30 seconds), and the animal was monitored for at least 6 minutes for changes in cardiovascular efforts. Compounds were prepared in formulations identified to ensure optimal solubility. As such, vehicle controls were matched for the formulation of each compound tested. Dosing of the compounds being screened was conducted at 0.1 and/or 0.3 mg/kg and/or 3 mg/kg The next dose was not administered until all cardiovascular and respiratory measures had returned to baseline levels. The positive control compounds used were N-[4,6-di-(n-propylamino)-[1,3,5]triazin-2-yl]-N,O-dimethyl-hydroxylamine or N-[2,6-di-(n-propylamino)-[1,3]pyrimidin-4-yl]-N,O-dimethyl-hydroxylamine (both administered at the end of each screening experiment (0.3 mg/kg dose) to validate the experiment and also to serve as a measure with which the compound being screened could be compared.
Data were analyzed by collecting cardiovascular and respiratory data in 30 second averages (BINs). Data were plotted 2 minutes before challenge and then 6 minutes after challenge.

Structure (SMILES) | change in vivo at 0.3 mg/kg | change in vivo at 3 mg/kg
CNc1nc(NCC(F)F)c2nc(NC)nc(NCCO)c2n1 [Compound 60a, 2-[8-(2,2-Difluoro-ethylamino)-2,6-bis-methylamino-pyrimido[5,4-d]-pyrimidin-4-ylamino]-ethanol Hydrochloride] | 15% | 119%
CNc1nc(NCC(F)(F)F)c2nc(NC)nc(NCCO)c2n1 [Compound 62a, 2-[2,6-Bis-methylamino-8-(2,2,2-trifluoro-ethylamino)-pyrimido[5,4-d]pyrimidin-4-ylamino]-ethanol Hydrochloride] | 40% | 
CNc1nc(NCc2ccccc2)c2nc(NC)nc(NCCO)c2n1 [Compound 64a, 2-(8-Benzylamino-2,6-bis-methylamino-pyrimido[5,4-d]-pyrimidin-4-ylamino)-ethanol Hydrochloride] | 32% | 157%
CCNc1nc(NC)nc2c(NCCCO)nc(NC)nc12 [Compound 67a, 3-(8-Ethylamino-2,6-bis-methylamino-pyrimido[5,4-d]-pyrimidin-4-ylamino)-propan-1-ol Hydrochloride] | 7% | 136%
CCCNc1nc(NC)nc2c(N3CCC(O)C3)nc(NC)nc12 (stereo not shown) [Compound 71a, 1-(2,6-Bis-methylamino-8-propylamino-pyrimido[5,4-d]pyrimidin-4-yl)-pyrrolidin-3-ol Hydrochloride] | 17% | 84%
CCCNc1nc(NC)nc2c(NCC3(O)CCC3)nc(NC)nc12 [Compound 72a, 1-[(2,6-Bis-methylamino-8-propylamino-pyrimido[5,4-d]pyrimidin-4-ylamino)-methyl]-cyclobutanol Hydrochloride] | 132% | 150%
CCCNc1nc(NC)nc2c(N(C)CC(C)O)nc(NC)nc12 (stereo not shown) [Compound 73a, 1-[(2,6-Bis-methylamino-8-propylamino-pyrimido[5,4-d]-pyrimidin-4-yl)-methyl-amino]-propan-2-ol Hydrochloride] | 16% | 79%
CCCNc1nc(NC)nc2c(NCC(O)(CC)CC)nc(NC)nc12 [Compound 74a, 3-[(2,6-Bis-methylamino-8-propylamino-pyrimido[5,4-d]pyrimidin-4-ylamino)-methyl]-pentan-3-ol Hydrochloride] | 153% | 208%
CCCNc1nc(NC)nc2c(NCC(O)CO)nc(NC)nc12 (stereo not shown) [Compound 75a, 3-(2,6-Bis-methylamino-8-propylamino-pyrimido[5,4-d]pyrimidin-4-ylamino)-propane-1,2-diol Hydrochloride] | 158% | 180%
CCCNc1nc(NC)nc2c(N(C)CC(C)(C)O)nc(NC)nc12 [Compound 76, 1-[(2,6-Bis-methylamino-8-propylamino-pyrimido[5,4-d]pyrimidin-4-yl)-methyl-amino]-2-methyl-propan-2-ol] | 37% | 71%
CCCNc1nc(NC)nc2c(N[C@@H]3c4ccccc4C[C@@H]3O)nc(NC)nc12 [Compound 77, (1R,2S)-1-(2,6-Bis-methylamino-8-propylamino-pyrimido[5,4-d]-pyrimidin-4-ylamino)-indan-2-ol] | 135% | 170%
CCCNc1nc(NC)nc2c(N[C@H]3c4ccccc4C[C@@H]3O)nc(NC)nc12 [Compound 78, (1S,2S)-1-(2,6-Bis-methylamino-8-propylamino-pyrimido[5,4-d]-pyrimidin-4-ylamino)-indan-2-ol] | 173% | 180%
CCCNc1nc(NC)nc2c(N[C@H]3c4ccccc4C[C@H]3O)nc(NC)nc12 [Compound 79, (1S,2R)-1-(2,6-Bis-methylamino-8-propylamino-pyrimido[5,4-d]pyrimidin-4-ylamino)-indan-2-ol] | 56% | 162%
CCCNc1nc(NC)nc2c(N[C@@H]3c4ccccc4C[C@H]3O)nc(NC)nc12 [Compound 80, (1R,2R)-1-(2,6-Bis-methylamino-8-propylamino-pyrimido[5,4-d]-pyrimidin-4-ylamino)-indan-2-ol] | 71% | 95%
CCCNc1nc(NC)nc2c(N[C@H]3CCCC[C@H]3O)nc(NC)nc12 [Compound 82, (1R,2S)-2-(2,6-Bis-methylamino-8-propylamino-pyrimido[5,4-d]pyrimidin-4-ylamino)-cyclohexanol] | 102% | 132%
CCCNc1nc(NC)nc2c(N[C@H]3CCCC[C@@H]3O)nc(NC)nc12 [Compound 83, (1S,2S)-2-(2,6-Bis-methylamino-8-propylamino-pyrimido[5,4-d]pyrimidin-4-ylamino)-cyclohexanol] | 176% | 153%
CCCNc1nc(NC)nc2c(N[C@@H]3CCCC[C@@H]3O)nc(NC)nc12 [Compound 84, (1S,2R)-2-(2,6-Bis-methylamino-8-propylamino-pyrimido[5,4-d]pyrimidin-4-ylamino)-cyclohexanol] | 169% | 184%
CCCNc1nc(NC)nc2c(N[C@@H]3CCCC[C@H]3O)nc(NC)nc12 [Compound 85, (1R,2R)-2-(2,6-Bis-methylamino-8-propylamino-pyrimido[5,4-d]pyrimidin-4-ylamino)-cyclohexanol] | 69% | 83%
CCCNc1nc(NC)nc2c(N[C@H]3CCC[C@@H]3O)nc(NC)nc12 [Compound 86, (1S,2S)-2-(2,6-Bis-methylamino-8-propylamino-pyrimido[5,4-d]pyrimidin-4-ylamino)-cyclopentanol] | 26% | 92%
CCCNc1nc(NC)nc2c(N[C@@H]3CCC[C@H]3O)nc(NC)nc12 [Compound 87, (1R,2R)-2-(2,6-Bis-methylamino-8-propylamino-pyrimido[5,4-d]pyrimidin-4-ylamino)-cyclopentanol] | 39% | 129%
CNc1nc(NCC2CC2)nc2c(NC)nc(NCCO)nc12 [Compound 90, 2-[6-(Cyclopropylmethyl-amino)-4,8-bis-methylamino-pyrimido[5,4-d]pyrimidin-2-ylamino]-ethanol] | 26% | 
CCCNc1nc(NC)c2nc(NCCO)nc(NC)c2n1 [Compound 91, 2-(4,8-Bis-methylamino-6-propylamino-pyrimido[5,4-d]pyrimidin-2-ylamino)-ethanol] | 16% | 
CNc1nc(N(C)C)nc2c(NC)nc(NCCO)nc12 [Compound 92, 2-(6-Dimethylamino-4,8-bis-methylamino-pyrimido[5,4-d]-pyrimidin-2-ylamino)-ethanol] | 49% | 148%
CCCNc1nc(NC)c2nc(NCC(C)(C)O)nc(NC)c2n1 [Compound 94, 1-(4,8-Bis-methylamino-6-propylamino-pyrimido[5,4-d]pyrimidin-2-ylamino)-2-methyl-propan-2-ol] | 18% | 130%
CCCNc1nc(NC)c2nc(NCC(C)O)nc(NC)c2n1 (stereo not shown) [Compound 95, 1-(4,8-Bis-methylamino-6-propylamino-pyrimido[5,4-d]-pyrimidin-2-ylamino)-propan-2-ol] | 138% | 
